EC50 data for 22 compounds are collected here from patent US8569378B2, “p27 protein inducer” (Chugai Seiyaku Kabushiki Kaisha, priority 2007, dated 2013).

Structures are written as SMILES.

For one experiment, the system named is p27 protein. As to the kind of experiment: Quantification of p27 protein by ELISA (p27 protein-inducing activity, EC50). The class given is cell-based, human. To be noted: NCI-H460 cells, 48 hours, p27 sandwich ELISA; Table 1-1. As for the experimental part:
The p27 protein-inducing activities of the compounds or salts listed in Tables 1-1, 1-2 and 2 below were measured as follows.
Preparation of Cell Lysate:
NCI-H460 human non-small cell lung cancer cells (ATCC HTB-177) were plated in 6-well plates at 2×10^5 cells/well and incubated overnight. Then, the test substance was added to the medium to a final concentration of 10000 nmol/L, 3000 nmol/L, 100 nmol/L, 30 nmol/L, 10 nmol/L, 3 nmol/L, 1 nmol/L, 0.3 nmol/L, 0.1 nmol/L, 0.03 nmol/L or 0.01 nmol/L and the cells were incubated at 37° C. in 5% CO2 for 48 hours. 150 μL of Cell Lysis Buffer (catalog no. 9803, Cell Signaling) which had been diluted to 1-fold concentration (1 mM PMSF was added immediately before use) was added, and the mixture was allowed to stand on ice for 10 minutes. The Cell Lysis Buffer in which cells were lysed was collected together with cells with a scraper and transferred to a new tube. It was centrifuged at 15000 rpm for 10 minutes at 4° C. and the supernatant was then transferred to a new tube.
Quantification by Sandwich ELISA:
Anti-p27 monoclonal antibody (catalog no. 71-9600, Zymed) was diluted to 5 μg/mL in 50 mM carbonate coating buffer (0.4 g/L NaCO3, 0.73 g/L NaHCO3 and 0.04 g/L NaN3 in distilled water), and it was then added at 50 μL/well and allowed to stand overnight at 4° C. to bind the antibody. After washing three times with PBS, 200 μL of blocking solution (0.2% I-Block in PBS) was added to each well. After 1 hour of incubation at room temperature, washing with PBS-T (0.05% Tween 20 in PBS) was performed three times. The sample and recombinant p27 protein standard were serially diluted in Cell Lysis Buffer (catalog no. 9803, Cell Signaling) which had been diluted to 1-fold concentration (1 mM PMSF was added immediately before use), and it was then added at 100 μL/well. After 1 hour of incubation at room temperature, washing with 200 μL of PBS-T was performed three times. HRP-labeled anti-p27 antibody (product no. 610243, BD Transdution Laboratories) was diluted 1:2500 (i.e. to 0.1 μg/mL) in 0.2% I-Block/0.05% PBS-T, and it was then added at 100 μL/well. After 1 hour of incubation at room temperature, washing with 200 μL of PBS-T was performed three times. Chromogenic substrate solution (TMB One Solution, catalog no. G7431, Promega) was added at 100 μL/well and allowed to develop a color reaction at room temperature. After stopping the reaction with 50 μL of 1N H2SO4, the absorbance at 450 nm was measured.
Calculation of EC50 Values:
A standard response curve was generated by plotting the amount of p27 protein against the concentration of the test substance. The basal level of response was defined as 0%, while the plateau level where the induction of p27 protein had been maximized was defined as 100%. Finally, the test substance concentration at which 50% induction was achieved was calculated, and it was defined as EC50.
As a reminder, the EC50 is the midpoint of the concentration-response curve. Low readings indicate higher potency in that assay, high ones lower potency in that assay. `CNS(=O)(=O)Nc1cccc(Cc2c(CF)c3cc(Cl)c(OC(=O)N(C)C)cc3oc2=O)c1` [Compound 1j-1-3-2F, Dimethylcarbamic acid 6-chloro-4-fluoromethyl-3-{3-(methylaminosulfonyl)aminobenzyl}-2-oxo-2H-1-benzopyran-7-yl ester] registered an EC50 of 31 nM. This lies in the double-digit nanomolar range. Still for that read-out and setting: then `Cc1c(Cc2cccc(NS(=O)(=O)N(C)C)c2)c(=O)oc2cc(OC(=O)N(C)C)c(Cl)cc12` [Compound 1j-1-3-3, Dimethylcarbamic acid 6-chloro-4-methyl-3-{3-(dimethylaminosulfonyl)aminobenzyl}-2-oxo-2H-1-benzopyran-7-yl ester], with 74 nM; and `Cc1c(Cc2cccc(NS(N)(=O)=O)c2F)c(=O)oc2cc(OC(=O)N(C)C)ccc12` [Compound 1j-1-4-1, Dimethylcarbamic acid 3-(3-aminosulfonylamino-2-fluoro-benzyl)-4-methyl-2-oxo-2H-1-benzopyran-7-yl ester], with 180 nM. On the same count and under the same terms, then `CNS(=O)(=O)Nc1cccc(Cc2c(C)c3ccc(OC(=O)N(C)C)cc3oc2=O)c1F` [Compound 1j-1-4-2, Dimethylcarbamic acid 3-(3-methylaminosulfonylamino-2-fluoro-benzyl)-4-methyl-2-oxo-2H-1-benzopyran-7-yl ester], with 78 nM; and `CNS(=O)(=O)Nc1cccc(Cc2c(CF)c3ccc(OC(=O)N(C)C)cc3oc2=O)c1F` [Compound 1j-1-4-2F, Dimethylcarbamic acid 3-(3-methylaminosulfonylamino-2-fluoro-benzyl)-4-fluoromethyl-2-oxo-2H-1-benzopyran-7-yl ester], with 60 nM. Same read-out and setting: for `CNS(=O)(=O)Nc1cccc(Cc2c(C)c3cc(F)c(OC(=O)N(C)C)cc3oc2=O)c1F` [Compound 1j-1-5-2, Dimethylcarbamic acid 6-fluoro-4-methyl-3-{2-fluoro-3-(methylaminosulfonyl)aminobenzyl}-2-oxo-2H-1-benzopyran-7-yl ester] the value was 210 nM; for `Cc1c(Cc2cccc(NS(N)(=O)=O)c2)c(=O)oc2cc(OC(=O)N(C)C)c(I)cc12` [Compound 1j-1-7-1, Dimethylcarbamic acid 3-{3-(aminosulfonyl)aminobenzyl}-6-iodo-4-methyl-2-oxo-2H-1-benzopyran-7-yl ester], 160 nM.

For the compound `CNS(=O)(=O)Nc1cccc(Cc2c(C)c3cc(I)c(OC(=O)N(C)C)cc3oc2=O)c1` [Compound 1j-1-7-2, Dimethylcarbamic acid 6-iodo-4-methyl-3-{3-(methylaminosulfonyl)aminobenzyl}-2-oxo-2H-1-benzopyran-7-yl ester], a half-maximal effect (EC50) was put at 27 nM. With `CNS(=O)(=O)Nc1cccc(Cc2c(C)c3cc(C)c(OC(=O)N(C)C)cc3oc2=O)c1` [Compound 1j-1-8-2, Dimethylcarbamic acid 6-methyl-4-methyl-3-{3-(methylaminosulfonyl)aminobenzyl}-2-oxo-2H-1-benzopyran-7-yl ester], a half-maximal response (EC50) required 240 nM. Compared with the last compound, the EC50 is about 8.9-fold higher. On the same count and under the same terms, for `CNS(=O)(=O)Nc1cccc(Cc2c(C)c3cc(C#N)c(OC(=O)N(C)C)cc3oc2=O)c1` [Compound 1j-1-9-2, Dimethylcarbamic acid 6-cyano-4-methyl-3-{3-(methylaminosulfonyl)aminobenzyl}-2-oxo-2H-1-benzopyran-7-yl ester] the value was 4800 nM. The same measure, in the same setting: for `Cc1c(Cc2cccc(NS(=O)(=O)NCCC#N)c2)c(=O)oc2cc(OC(=O)N(C)C)c(Cl)cc12` [Compound 1j-1-21-2, Dimethylcarbamic acid 3-(3-(N-(2-cyanoethyl)sulfamoyl)aminobenzyl)-6-chloro-4-methyl-2-oxo-2H-1-benzopyran-7-yl ester] the value was 150 nM; for `COCCNS(=O)(=O)Nc1cccc(Cc2c(C)c3cc(Cl)c(OC(=O)N(C)C)cc3oc2=O)c1` [Compound 1j-1-23-2, Dimethylcarbamic acid 3-(3-(N-(2-methoxyethyl)sulfamoyl)aminobenzyl)-6-chloro-4-methyl-2-oxo-2H-1-benzopyran-7-yl ester], 220 nM.

The experiment is the same for the next values; noted with them: NCI-H460 cells, 48 hours, p27 sandwich ELISA; Table 1-2.
`Cc1c(Cc2ccccc2)c(=O)oc2cc(OC(=O)N(C)C)c(Cl)cc12` [Comp. 2, dimethylcarbamic acid 2-oxo-2H-3-benzyl-4-methyl-6-chloro-1-benzopyran-7-yl ester, reference compound] yielded an EC50 of 5400 nM. Regarding `CNS(=O)(=O)Nc1cc(Cc2c(C)c3cc(Cl)c(OC(=O)N(C)C)cc3oc2=O)ccn1` [Compound 1j-1-12-2, Dimethylcarbamic acid 4-methyl-3-{2-(methylaminosulfonyl)aminopyridin-4-ylmethyl}-6-chloro-2-oxo-2H-1-benzopyran-7-yl ester], the concentration for a half-maximal effect (EC50) is 1100 nM.

Turning to `CNS(=O)(=O)Nc1nccc(Cc2c(C)c3cc(F)c(Oc4ncccn4)cc3oc2=O)c1F` [Compound 1j-2-17-2, 3-{2-(methylaminosulfonyl)amino-3-fluoropyridin-4-ylmethyl}-4-methyl-6-fluoro-7-(pyrimidin-2-yloxy)-2-oxo-2H-1-benzopyran], a half-maximal response (EC50) required 220 nM. Turning to `CNS(=O)(=O)Nc1nccc(Cc2c(C)c3cc(Cl)c(Oc4ncccn4)cc3oc2=O)c1F` [Compound 1j-2-18-2, 3-{2-(Methylaminosulfonyl)amino-3-fluoropyridin-4-ylmethyl}-4-methyl-6-chloro-7-(pyrimidin-2-yloxy)-2-oxo-2H-1-benzopyran], a half-maximal effect (EC50) was put at 43 nM.

In turn, `CNS(=O)(=O)Nc1nccc(Cc2c(C)c3cc(C)c(Oc4ncccn4)cc3oc2=O)c1F` [Compound 1j-2-19-2, 3-{2-(Methylaminosulfonyl)amino-3-fluoropyridin-4-ylmethyl}-4-methyl-6-methyl-7-(pyrimidin-2-yloxy)-2-oxo-2H-1-benzopyran] displayed an EC50 of 160 nM. The compound `CCc1c(Cc2ccnc(NS(=O)(=O)NC)c2F)c(=O)oc2cc(Oc3ncccn3)c(C)cc12` [Compound 1j-2-19-2Me, 3-{2-(Methylaminosulfonyl)amino-3-fluoropyridin-4-ylmethyl}-4-ethyl-6-methyl-7-(pyrimidin-2-yloxy)-2-oxo-2H-1-benzopyran] gave an EC50 of 48 nM.

Staying with this experiment, now noted: NCI-H460 cells, 48 hours, p27 sandwich ELISA; Table 2.
The compound `CNS(=O)(=O)Nc1cccc(Cc2c(C)c3ccc(OC(=O)N(C)C)cc3oc2=O)n1` [Compound 1j-1-13-2, Dimethylcarbamic acid 4-methyl-3-{6-(methylaminosulfonyl)aminopyridin-2-ylmethyl}-2-oxo-2H-1-benzopyran-7-yl ester] showed an EC50 of 2500 nM.

The compound `CNS(=O)(=O)Nc1cc(Cc2c(C)c3cc(Cl)c(Oc4ncccn4)cc3oc2=O)ccn1` [Compound 1j-2-12-2, 3-{2-(Methylaminosulfonyl)aminopyridin-4-ylmethyl}-4-methyl-7-(pyrimidin-2-yloxy)-6-chloro-2-oxo-2H-1-benzopyran] yielded an EC50 of 1450 nM. Compound `CNS(=O)(=O)Nc1nccc(Cc2c(C)c3ccc(Oc4ncccn4)cc3oc2=O)c1F` [Compound 1j-2-16-2, 3-{2-(Methylaminosulfonyl)amino-3-fluoropyridin-4-ylmethyl}-4-methyl-7-(pyrimidin-2-yloxy)-2-oxo-2H-1-benzopyran] had a concentration giving a half-maximal response (EC50) of 504 nM.

With `CNS(=O)(=O)Nc1cccc(Cc2c(C)c3ccc(Oc4nccs4)cc3oc2=O)c1` [Compound 1j-3-1-2, 3-{3-(Methylaminosulfonyl)aminobenzyl}-4-methyl-7-(thiazol-2-yloxy)-2-oxo-2H-1-benzopyran], the EC50 was found to be 7100 nM.
